Consider 23 compounds from US20080293749A1, “Pyrrolidine(thi)ones Substituted by Heterocyclic Substituents in The 3-Position” (Gruenenthal GmbH, priority 2005, published 2008).

Converted amounts (≈) assume the structure as drawn.

The test system of data set [1] is IL-12 production of LPS-activated monocytes. The data set can be described thus: Inhibition of IL-12 production of LPS-activated human monocytes (sandwich ELISA of culture supernatants). Format: cell-based. The conditions noted are these: human CD14-positive monocytes, 1 h preincubation with test substance, 10 μg/ml LPS from E. coli, 24 hours; for IC50: Monocyte. On the procedure: (§1) Stimulation of human monocytes with lipopolysaccharide for secretion of IL-10 and IL-12:
(§2) Human monocytes were isolated from peripheral blood mononuclear cells (PBMC), which were obtained from heparinized whole blood by means of a Ficoll density gradient centrifugation. For this, the PBMC were incubated with a monoclonal antibody which is directed against the monocyte-specific surface molecule CD14 and to which superparamagnetic microbeads (Miltenyi Biotech, Bergisch Gladbach) are coupled. For positive selection of the labelled monocytes from the cell mixture of the PBMC, the entire cell suspension was applied to a column with a ferromagnetic carrier matrix and this was placed in a magnetic field. The cells loaded with microbeads were thereby bound to the carrier matrix, and non-labelled cells passed through the column and were discarded. After removing the matrix from the magnetic field, the antibody-laden cells were eluted by rinsing the now demagnetized column with buffer. The purity of this CD14-positive monocyte population obtained in this way is about 95-98%. These monocytes were incubated in a density of 10^6 cells/ml of culture medium (RPMI, supplemented with 10% foetal calf serum) with the test substances, dissolved in DMSO, at 37° C. and 5% CO2 for one hour. 10 μg/ml of LPS from E. coli were then added. After 24 hours, cell-free culture supernatants were taken and tested for the content of IL-10 and IL-12.
(§3) The concentration of IL-12 and IL-10 in the cell culture supernatants was determined by means of sandwich ELISAs using two anti-IL-12 and, respectively, IL-10 monoclonal antibodies (Biosource Europe, Fleurus, Belgium). A reference standard curve with human IL-10 and, respectively, IL-12 was included. The detection limit of the ELISAs was 15 pg/ml.

The test system of data set [2] is IL-10 production of LPS-activated monocytes. Nature of the data set: Increase in IL-10 production of LPS-activated human monocytes (sandwich ELISA of culture supernatants). Format: cell-based. As to conditions: human CD14-positive monocytes, 1 h preincubation with test substance, 10 μg/ml LPS from E. coli, 24 hours; for EC200: Monocyte. On the procedure:
as §1, §2, §3

The nature of data set [3]: Pharmacokinetics after intravenous administration to rats (plasma concentration/time curves). The class given is in vivo. The conditions noted are these: 10 mg/kg each, both compounds given together, estimated from the FIGURE. On the procedure:
Volumes of 2 ml/kg were administered intravenously to rats through the tail vein. After defined times, blood samples were taken from the retro-orbital plexus and plasma obtained. Plasma concentrations of both compounds were determined using valid bioanalytical methods.

`O=C1CC(N2C=Nc3cc(F)ccc3C2)C(=O)N1` (stereo not shown) [Example 3, 3-(7-fluoro-4H-quinazolin-3-yl)-pyrrolidine-2,5-dione] returned an IC50 in data set [1] of 0.13 mg/L (≈ 0.526 µM). In data set [2], this compound had an EC200 of 0.4 µg/mL. The distribution volume in data set [3] was 0.26 L/kg.

`Cc1cccc2c1CN(C1CC(=O)NC1=O)C=N2` (stereo not shown) [Example 8b, 3-(5-methyl-4H-quinazolin-3-yl)-pyrrolidine-2,5-dione] came in with a melting point of 221 to 224 °C. Moreover, in data set [1], the IC50 was 7.3 mg/L (≈ 30 µM). In data set [2], this compound had an EC200 of over 50 µg/mL.

For `O=C1CC(N2C=Nc3cc4ccccc4cc3C2)C(=O)N1` (stereo not shown) [Example 8c, 3-(4H-benzo[q]quinazolin-3-yl)-pyrrolidine-2,5-dione], the “Inhibition of IL-12 production IC50” value in data set [1] was found to be 4 mg/L. In data set [2], the “Increase in IL-10 production EC200” value is over 50000 ng/mL.

Regarding `O=C1CC(N2C=Nc3cc(F)c(F)cc3C2)C(=O)N1` (stereo not shown) [Example 8d, 3-(6,7-difluoro-4H-quinazolin-3-yl)-pyrrolidine-2,5-dione], the midpoint of inhibition in data set [1], the IC50, lay at 0.715 mg/L (≈ 2.7 µM). In addition, the EC200 in data set [2] was over 50 µg/mL.

As to `O=C1CC(N2C=Nc3cc(Cl)ccc3C2)C(=O)N1` (stereo not shown) [Example 8g, 3-(7-chloro-4H-quinazolin-3-yl)-pyrrolidine-2,5-dione], the melting point came out at 194 °C. Besides, the IC50 in data set [1] was determined as 0.62 mg/L (≈ 2.35 µM). This compound also returned an EC200 in data set [2] of 1 µg/mL.

Turning to `COc1ccc2c(c1)N=CN(C1CC(=O)NC1=O)C2` (stereo not shown) [Example 9b, 3-(7-methoxy-4H-quinazolin-3-yl)-pyrrolidine-2,5-dione], the melting point was in the range of 174 to 184 °C. This compound displayed an IC50 in data set [1] of 15 mg/L (≈ 57.9 µM). The same compound came in with an EC200 in data set [2] of 16 µg/mL.

In turn, `O=C1CC(N2C=Nc3cccc(Cl)c3C2)C(=O)N1` (stereo not shown) [Example 10a, 3-(5-chloro-4H-quinazolin-3-yl)-pyrrolidine-2,5-dione] gave a melting point of 218 °C. The compound also yielded an IC50 in data set [1] of 0.303 mg/L (≈ 1.15 µM). For the same compound, the EC200 in data set [2] was determined as 16 µg/mL.

Turning to `O=C1CC(N2C=Nc3ccc(Cl)cc3C2)C(=O)N1` (stereo not shown) [Example 10c, 3-(6-chloro-4H-quinazolin-3-yl)-pyrrolidine-2,5-dione], the melting point amounted to 166 °C. The 50% inhibitory concentration (IC50) in data set [1] worked out at 1.17 mg/L (≈ 4.44 µM). In addition, the EC200 in data set [2] was over 50 µg/mL.

For the compound `O=C1CC(N2C=Nc3ccccc3C2)C(=O)N1` (stereo not shown) [Example 11a, 3-(4H-quinazolin-3-yl)-pyrrolidine-2,5-dione], the melting point fell in the range of 168 to 174 °C. In data set [1], half-maximal inhibition (IC50) required 0.6 mg/L (≈ 2.62 µM). This compound showed an EC200 in data set [2] of 5 µg/mL.

Turning to `O=C1CC(N2C=Nc3cccc(F)c3C2)C(=O)N1` (stereo not shown) [Example 11b, 3-(5-fluoro-4H-quinazolin-3-yl)-pyrrolidine-2,5-dione], the melting point was in the range of 184 to 191 °C. For the same compound, it took 0.514 mg/L (≈ 2.08 µM) to reach half-maximal inhibition in data set [1] (IC50). Besides, the EC200 in data set [2] was 5.6 µg/mL.

`COc1cccc2c1CN(C1CC(=O)NC1=O)C=N2` (stereo not shown) [Example 12a, 3-(5-methoxy-4H-quinazolin-3-yl)-pyrrolidine-2,5-dione] showed an IC50 in data set [1] of 1.8 mg/L (≈ 6.94 µM). The EC200 in data set [2] is over 50 µg/mL.

`O=C1CC(N2C=Nc3cccc([N+](=O)[O-])c3C2)C(=O)N1` (stereo not shown) [Example 14, 3-(5-nitro-4H-quinazolin-3-yl)-pyrrolidine-2,5-dione] displayed an IC50 in data set [1] of 5.71 mg/L (≈ 20.8 µM). The compound also returned an EC200 in data set [2] of 20 µg/mL.

With `CC1=Nc2ccccc2CN1C1CC(=O)NC1=O` (stereo not shown) [Example 15b, 3-(2-methyl-4H-quinazolin-3-yl)-pyrrolidine-2,5-dione], the melting point lay within 72 to 75 °C. The compound also came in with an IC50 in data set [1] of 4 mg/L (≈ 16.5 µM). In data set [2], this compound returned an EC200 of over 50 µg/mL.

As for `CC1=Nc2cc(Cl)ccc2CN1C1CC(=O)NC1=O` (stereo not shown) [Example 15bb, 3-(7-chloro-2-methyl-4H-quinazolin-3-yl)-pyrrolidine-2,5-dione], the melting point was in the range of 153 to 155 °C. Further, half-maximal inhibition in data set [1] (IC50) required 0.419 mg/L (≈ 1.51 µM). The compound also returned an EC200 in data set [2] of 5.6 µg/mL.

Turning to `CC1=Nc2cc(F)ccc2CN1C1CC(=O)NC1=O` (stereo not shown) [Example 15cc, 3-(7-fluoro-2-methyl-4H-quinazolin-3-yl)-pyrrolidine-2,5-dione], in data set [1], the IC50 was 6 mg/L (≈ 23 µM). In data set [2], this compound showed an EC200 of 20 µg/mL.

With `CC1=Nc2cc(F)cc(F)c2CN1C1CC(=O)NC1=O` (stereo not shown) [Example 15e, 3-(5,7-difluoro-2-methyl-4H-quinazolin-3-yl)-pyrrolidine-2,5-dione], the melting point is 176 to 178 °C. In addition, the IC50 in data set [1] is 0.52 mg/L (≈ 1.86 µM). Besides, the EC200 in data set [2] is 3 µg/mL.

`CC1=Nc2cccc(Br)c2CN1C1CC(=O)NC1=O` (stereo not shown) [Example 15h, 3-(5-bromo-2-methyl-4H-quinazolin-3-yl)-pyrrolidine-2,5-dione] returned an IC50 in data set [1] of 4 mg/L (≈ 12.4 µM). The compound further yielded an EC200 in data set [2] of over 50 µg/mL.

As to `CC1=Nc2cccc(Cl)c2CN1C1CC(=O)NC1=O` (stereo not shown) [Example 15i, 3-(5-chloro-2-methyl-4H-quinazolin-3-yl)-pyrrolidine-2,5-dione], the melting point was 163 to 170 °C. Inhibition in data set [1] was half-maximal at 0.884 mg/L (≈ 3.18 µM) (IC50). The compound also yielded an EC200 in data set [2] of 15 µg/mL.

`CC1=Nc2cc(F)cc(Cl)c2CN1C1CC(=O)NC1=O` (stereo not shown) [Example 15j, 3-(5-chloro-7-fluoro-2-methyl-4H-quinazolin-3-yl)-pyrrolidine-2,5-dione]: the melting point lay in the range of 179 to 181 °C. In data set [1], this compound yielded an IC50 of 0.521 mg/L (≈ 1.76 µM). Besides, the EC200 in data set [2] was determined as 5 µg/mL.

Take `CC1=Nc2cccc(F)c2CN1C1CC(=O)NC1=O` (stereo not shown) [Example 15l, 3-(5-fluoro-2-methyl-4H-quinazolin-3-yl)-pyrrolidine-2,5-dione]: the melting point was found to be 185 °C. Besides, inhibition in data set [1] was half-maximal at 2 mg/L (≈ 7.66 µM) (IC50). Also, the EC200 in data set [2] came to 5.6 µg/mL.

As for `CC1=Nc2cc(F)c(F)cc2CN1C1CC(=O)NC1=O` (stereo not shown) [Example 15u, 3-(6,7-difluoro-2-methyl-4H-quinazolin-3-yl)-pyrrolidine-2,5-dione], the melting point was 183 to 185 °C. Moreover, the 50% inhibitory concentration (IC50) in data set [1] was 1.8 mg/L (≈ 6.45 µM). The compound also came in with an EC200 in data set [2] of over 50 µg/mL.

`O=C1CCC(N2C(=O)c3ccccc3C2=O)C(=O)N1` (stereo not shown) [Thalidomide, thalidomide, reference compound] yielded an IC50 in data set [1] of 0.07 mg/L (≈ 0.271 µM). The EC200 in data set [2] turned out to be 20 µg/mL.

In turn, `O=C1CC(N2C(=O)c3ccccc3C2=O)C(=O)N1` (stereo not shown) [XXVIII = C1, 2-(2,5-dioxo-pyrrolidin-3-yl)-isoindole-1,3-dione, reference compound] displayed an IC50 in data set [1] of over 50 mg/L. Moreover, the “Increase in IL-10 production EC200” value in data set [2] is given as “no increase”.
